The text below walks through data of US5672707A (priority 1991, dated 1997).

The test system of one data set is rats. As to the kind of experiment: Passive avoidance test in normal rats, 50% acquisition. The format is in vivo. Particulars: for Increase of the number of correct trails (% to control). Passive avoidance test (rats): 0.1 mg/kg i.p. 20 min before training, piracetam 250 mg/kg 60 min before training. On the procedure:
(§1) Psychoneurotropic activity of the declared compounds and their influence on learning and memory were observed using unbred male (18-20 g) mice and 180-200 g) rats, held at standard conditions (room temperature 21°-22° C., 12-hours lighting schedule, food and water ad libitum).
The influence of drugs on reflex conditioning in rats was studied by the passive avoidance test in conditions of 50% acquisition. The effect of the compound was estimated by the increase of the relative number of learned animals with respect to that of control group. […] The other reference drug--noothropic agent piracetam--was given in the dose 250 mg/kg 60 min before training. Amnestic syndrome was stimulated by 20 days application of Sc at the daily dose of 1 mg/kg intraperitoneally. […] The passive avoidance test was performed within 24 hours after the last application of test preparations.

A short description of the next data set: in vivo. The following applies: for LD50 (mg/kg) by Kerber: intraperitoneal injection, Table 5. The procedure:
as §1
Acute toxicity was studied by the method of Kerber with intra peritoneal drug injection.

The next data set deals with rat adipocytes. As to the kind of experiment: Lipid composition of adipocytes after incubation with compounds. In kind it is cell-based. The following applies: cells; Table 11. The procedure:
Lipid regulative activity of the declared compounds--derivatives of 9-amino acridine--were evaluated in vitro[…] using rat adipocytes. Adipocytes were separated from adipose tissue of testis appendages of adult male rats. Lipid composition analysis was performed by the method of thin-layer chromatography.
Quantitative analysis of phospholipids (PL), mono- and diacylglycerides (MDG), triacylglycerides (TG), free fatty acids (FFA), free cholesterol (FCL), and methyl esters of fatty acids (MEFA) was performed by the method of spectrophotometry.

In data set [1] the test system is mice. The data set can be described thus: Psychotropic activity test: motor activity. The format is in vivo. Particulars: intraperitoneally, dose 1/20 of LD.
Data set [2] deals with mice. As to the kind of experiment: Psychotropic activity test: arecoline induced hyperkynesis. The following applies: intraperitoneally, dose 1/20 of LD. The format is in vivo.

`CCCCNc1c2c(nc3ccccc13)CC(C)(C)CC2=O` [Vx]: in the data set with rats, the “Increase of the number of correct trails (% to control). Passive avoidance test (rats)” value was 25 % to control. Moreover, the “LD50 (mg/kg) by Kerber” value in “in vivo” stood at 121.7 ± 15.5 mg/kg.
Regarding `CC(C)(Sc1cc(C(C)(C)C)c(O)c(C(C)(C)C)c1)Sc1cc(C(C)(C)C)c(O)c(C(C)(C)C)c1` [probucol, reference compound], in the data set with rat adipocytes, the FFA/TG in adipocytes is reported as 1.10, the PL/CL in adipocytes turned out to be 0.84 and the PL/TG in adipocytes is reported as 0.69.
Take `CC1(C)C=Cc2c(nc3ccccc3c2NCc2ccccc2)C1` [VIIu]: the “Increase of the number of correct trails (% to control). Passive avoidance test (rats)” value with rats is listed as 0 % to control. The “LD50 (mg/kg) by Kerber” value in the data set “in vivo” came to 83.8 ± 5.6 mg/kg. In addition, in the data set with mice [1], the “Motor activity increment (% to control)” value is recorded as 15 % to control. For the same compound, in the data set on mice [2], the “Increase of duration of arecoline induced hyperkynesis (% to control)” value (from here on “Increase of duration … (% to control)”) is reported as 12 % to control.
In the case of `CC1(C)C=Cc2c(nc3ccccc3c2NCc2ccccc2)C1` [VIIo], in the data set with rats, the “Performance of normal rats in passive avoidance test” value (shortened to “Performance of normal rats”) is recorded as “statistically significantly improved performance of normal rats” and the “Increase of the number of correct trails (% to control). Passive avoidance test (rats)” value was 40 % to control. Further, in “in vivo”, the “LD50 (mg/kg) by Kerber” value is 62.5 ± 7.7 mg/kg. For the same compound, in the data set on mice [1], the “Motor activity increment (% to control)” value is 16 % to control. Moreover, the “Increase of duration … (% to control)” value with mice [2] is recorded as 0 % to control.
Consider `CC1(C)C=Cc2c(nc3ccccc3c2NCc2ccccc2)C1` [VIIg], for which the “Increase of the number of correct trails (% to control). Passive avoidance test (rats)” value with rats is on record as 0 % to control. Besides, the “LD50 (mg/kg) by Kerber” value in “in vivo” amounted to 200.0 ± 21.9 mg/kg. For the same compound, the “Motor activity increment (% to control)” value in the data set on mice [1] is 23 % to control. The “Increase of duration … (% to control)” value in the data set with mice [2] was 0 % to control.
Turning to `CCCCNc1c2c(nc3ccccc13)CC(C)(C)CC2=O` [Vy], the “Increase of the number of correct trails (% to control). Passive avoidance test (rats)” value in the data set on rats was 0 % to control. In addition, in “in vivo”, the “LD50 (mg/kg) by Kerber” value was found to be 210.0 ± 14.8 mg/kg. Moreover, the “Motor activity increment (% to control)” value in the data set with mice [1] is given as 0 % to control. Further, the “Increase of duration … (% to control)” value in the data set with mice [2] is 0 % to control.
Consider `CC1(C)C=Cc2c(nc3ccccc3c2NCc2ccccc2)C1` [VIIr], for which, in the data set on rats, the “Performance of normal rats” value is “statistically significantly improved performance of normal rats” and the “Increase of the number of correct trails (% to control). Passive avoidance test (rats)” value is on record as 45 % to control. In addition, the “LD50 (mg/kg) by Kerber” value in the data set “in vivo” amounted to 69.5 ± 5.6 mg/kg. In addition, the “Motor activity increment (% to control)” value in the data set with mice [1] is listed as 0 % to control. The “Increase of duration … (% to control)” value with mice [2] was 0 % to control.
In the case of `CCCCNc1c2c(nc3ccccc13)CC(C)(C)CC2=O` [Vu], in the data set on rats, the “Performance of normal rats” value is given as “statistically significantly improved performance of normal rats” and the “Increase of the number of correct trails (% to control). Passive avoidance test (rats)” value is on record as 30 % to control. The “LD50 (mg/kg) by Kerber” value in “in vivo” turned out to be 210.0 ± 5.8 mg/kg. In addition, the “Motor activity increment (% to control)” value in the data set on mice [1] is recorded as 20 % to control. The “Increase of duration … (% to control)” value in the data set with mice [2] is 0 % to control.
With `CC1(C)C=Cc2c(nc3ccccc3c2NCc2ccccc2)C1` [VIIm], the “Increase of the number of correct trails (% to control). Passive avoidance test (rats)” value in the data set with rats is 25 % to control. Also, the “LD50 (mg/kg) by Kerber” value in the data set “in vivo” came out at 112.5 ± 10.9 mg/kg. Also, the “Motor activity increment (% to control)” value in the data set with mice [1] is listed as 15 % to control. Moreover, the “Increase of duration … (% to control)” value with mice [2] was 15 % to control.
`CC1(C)C=Cc2c(nc3ccccc3c2NCc2ccccc2)C1` [VIIf]: in the data set on rats, the “Increase of the number of correct trails (% to control). Passive avoidance test (rats)” value is on record as 0 % to control. In the data set “in vivo”, the “LD50 (mg/kg) by Kerber” value stood at 125.0 ± 15.5 mg/kg. For the same compound, the “Motor activity increment (% to control)” value in the data set on mice [1] is 0 % to control. Moreover, the “Increase of duration … (% to control)” value with mice [2] is reported as 0 % to control.
Turning to `CC1(C)C=Cc2c(nc3ccccc3c2NCc2ccccc2)C1` [VIIp], in the data set with rats, the “Performance of normal rats” value is on record as “statistically significantly improved performance of normal rats” and the “Increase of the number of correct trails (% to control). Passive avoidance test (rats)” value is 45 % to control. The LD50 in “in vivo” (in vivo, ip, LD50 (mg/kg) by Kerber) was 75 ± 3.8 mg/kg. For the same compound, in the data set on mice [1], the “Motor activity increment (% to control)” value is listed as 33 % to control. In addition, the “Increase of duration … (% to control)” value in the data set with mice [2] is 21 % to control.
For the compound `CCCCNc1c2c(nc3ccccc13)CC(C)(C)CC2=O` [Vw], the “Increase of the number of correct trails (% to control). Passive avoidance test (rats)” value in the data set with rats is 10 % to control. The “LD50 (mg/kg) by Kerber” value in “in vivo” was 125.0 ± 11.8 mg/kg. In addition, in the data set on mice [1], the “Motor activity increment (% to control)” value is 10 % to control. The “Increase of duration … (% to control)” value with mice [2] was 10 % to control.
Turning to `CC1(C)C=Cc2c(nc3ccccc3c2NCc2ccccc2)C1` [VIIn], in the data set on rats, the “Increase of the number of correct trails (% to control). Passive avoidance test (rats)” value is on record as 40 % to control. The “LD50 (mg/kg) by Kerber” value in “in vivo” was 125.0 ± 10.9 mg/kg. Moreover, the “Motor activity increment (% to control)” value in the data set with mice [1] is reported as 11 % to control. In the data set on mice [2], the “Increase of duration … (% to control)” value was 46 % to control.
Taken in the same sequence, the figures for `CCCCNc1c2c(nc3ccccc13)CC(C)(C)CC2=O` [Vt] were 0 % to control, 210.0 ± 9.8 mg/kg, 0 % to control and 0 % to control.
Taken in the same sequence, the figures for `CCCCNc1c2c(nc3ccccc13)CC(C)(C)CC2=O` [Vs] were 15 % to control, 165.8 ± 14.8 mg/kg, 0 % to control and 0 % to control.
Taken in the same sequence, the figures for `CC1(C)C=Cc2c(nc3ccccc3c2NCc2ccccc2)C1` [VIIh] were 20 % to control, 116.7 ± 10.9 mg/kg, 13 % to control and 28 % to control.
Take `CC1(C)C=Cc2c(nc3ccccc3c2NCc2ccccc2)C1` [VIIq]: in the data set on rats, the “Performance of normal rats” value is recorded as “statistically significantly improved performance of normal rats” and the “Increase of the number of correct trails (% to control). Passive avoidance test (rats)” value is listed as 45 % to control. The “LD50 (mg/kg) by Kerber” value in “in vivo” is reported as 73.3 ± 4.4 mg/kg. Besides, the “Motor activity increment (% to control)” value with mice [1] is listed as 20 % to control. Besides, the “Increase of duration … (% to control)” value in the data set on mice [2] was 30 % to control.
On to `CCCCNc1c2c(nc3ccccc13)CC(C)(C)CC2=O` [Vv], for which the “Increase of the number of correct trails (% to control). Passive avoidance test (rats)” value in the data set on rats was 25 % to control. For the same compound, the “LD50 (mg/kg) by Kerber” value in the data set “in vivo” amounted to 433.3 ± 7.8 mg/kg. In addition, the “Motor activity increment (% to control)” value in the data set on mice [1] is given as 26 % to control. In addition, the “Increase of duration … (% to control)” value with mice [2] is listed as 15 % to control.
Regarding `CCCCNc1c2c(nc3ccccc13)CC(C)(C)CC2=O` [Vz], the “Increase of the number of correct trails (% to control). Passive avoidance test (rats)” value with rats is given as 20 % to control. Moreover, the “LD50 (mg/kg) by Kerber” value in “in vivo” stood at 200.0 ± 21.9 mg/kg. For the same compound, the “Motor activity increment (% to control)” value with mice [1] was 0 % to control. In the data set on mice [2], the “Increase of duration … (% to control)” value is reported as 0 % to control.

A word on the LD50: it is the dose at which mortality reaches 50%. A high value points to a less toxic substance.
